Experimental findings from article PMC3199943, “Screening the MayBridge Rule of 3 Fragment Library for Compounds That Interact with the Trypanosoma brucei myo-Inositol-3-Phosphate Synthase and/or Show Trypanocidal Activity” (Molecular Biology International, 2011) are described below.

Where two headings read alike, the source gives them in different places.

One test deals with HeLa cells. Nature of the test: cells. Conditions: for viability at 500 µM / CC50: Homo sapiens, HeLa; for viability at 500 µM: 65 h; for CC50: read-out: HeLa ED50; for HeLa Cells Alamar Blue: Supplementary Table 1. The method, then: (§1) Cytotoxic effects against HeLa and A549 cells were determined in a similar manner. Briefly, the cells were cultured in DMEM supplemented with 10% FCS and 2 mM L-Glutamine. Cells were plated at initial cell concentration of 2 × 10^4 cells/well and incubated with the compounds for ~65 hours prior to addition of Alamar Blue solution for a further 5 hours.
For orientation: Resazurin is reduced to fluorescent resorufin, in cell work by metabolically active cells.

The next test has as its system A549 cells. Nature of the test: Cytotoxicity against A549 cells, Alamar Blue. The class given is cell-based. Conditions: Supplementary Table 1, compound 0.5 mM, percentage of controls (n=1); for viability at 500 µM: Homo sapiens, A549, 65 h. On the procedure: as §1
[1] abbreviates: read-out: HeLa Cells Alamar Blue.
Setting [2] is: compound 0.5 mM, percentage of controls, mean ± SD (n=3) or SE (n=2).

For the molecule `CNCc1ccc(OC)cc1` [compound 199, N‐(4‐methoxybenzyl)‐N‐methylamine], the viability at 500 µM stood at 95.1 ± 15.3% with HeLa cells (setting [1]) and 71% in the test on A549 cells.

`OCc1ccc2c(c1)OCO2` [compound 200, 1,3‐benzodioxol‐5‐ylmethanol]: the figures for the viability at 500 µM in the test on HeLa cells (setting [1]) and in the test with A549 cells were 85.2 ± 9.3% and 92.1%, respectively.

With `O=C1CCC2CC1CCC2=O` [compound 206, bicyclo[3.3.1]nonane‐2,6‐dione], the viability at 500 µM with HeLa cells (setting [1]) came out at 80.8 ± 7.6%; with A549 cells, 42.1%.

Consider `N#CC1(O)CN2CCC1CC2` (stereo not shown) [compound 208, 3‐hydroxyquinuclidine‐3‐carbonitrile], for which the results for the viability at 500 µM in the test on HeLa cells (setting [1]) and in the test on A549 cells were 99.4 ± 11.2% and 61.8%, respectively.

As to `OC12CC3CC(CC(C3)C1)C2` [compound 209, adamantan‐1‐ol], the figures for the viability at 500 µM in the test on HeLa cells (setting [1]) and with A549 cells were 92.2 ± 6.7% and 76.1%, respectively.

On to `CC(=O)Nc1ccccc1F` [compound 212, N1‐(2‐fluorophenyl)acetamide], for which the figures for the viability at 500 µM in the test with HeLa cells (setting [1]) and with A549 cells were 80.6 ± 6.6% and 65.4%, respectively.

On to `COc1ccc(N)c(OC)c1` [compound 213, 2,4‐dimethoxyaniline], for which the viability at 500 µM in the test on HeLa cells (setting [1]) was 14 ± 8.2%; with A549 cells, 61.2%. Moreover, the CC50 in the test with HeLa cells stood at 710 ± 96 µM.

With `CSc1ccccc1CN` [compound 217, 2‐(methylthio)benzylamine], the viability at 500 µM was 27.1 ± 0.5% with HeLa cells (setting [1]) and 70.3% in the test with A549 cells.

With `O=C(O)Cc1ccc(F)cc1` [compound 219, 2‐(4‐fluorophenyl)acetic acid], the results for the viability at 500 µM in the test on HeLa cells (setting [1]) and in the test with A549 cells were 94.3 ± 13.4% and 98.4%, respectively.

For the molecule `COC(=O)c1ccccc1F` [compound 220, methyl 2‐fluorobenzoate], the viability at 500 µM in the test with HeLa cells (setting [1]) is 108 ± 17.6%; in the test on A549 cells, 99.5%.

Take `CC12CCC(O)(CC1)CC2=O` [compound 222, 4‐hydroxy‐1‐methylbicyclo[2.2.2]octan‐2‐one]: the “HeLa Cells Alamar Blue” value in the test with HeLa cells (setting [2]) is 101.8 ± 5.9 percentage of controls. Further, the “A549 Cells Alamar Blue” value with A549 cells is 82.3 percentage of controls.

In the case of `CCCCc1nc(CO)c[nH]1` [compound 223, (2‐butyl‐1H‐imidazol‐4‐yl)methanol], the viability at 500 µM came out at 105 ± 13.7% in the test with HeLa cells (setting [1]) and 139% in the test with A549 cells.

On to `CC1(C)CC(=O)CC(C)(C)N1` [compound 228, 2,2,6,6‐tetramethyltetrahydro‐4(1H)‐pyridinone], for which, in the test on HeLa cells (setting [2]), the “HeLa Cells Alamar Blue” value is given as 101.3 ± 5.4 percentage of controls. Also, the “A549 Cells Alamar Blue” value in the test on A549 cells is recorded as 61.9 percentage of controls.

As to `NC(=O)c1ccccc1Cl` [compound 230, 2‐chlorobenzamide], the viability at 500 µM came out at 104 ± 8.8% in the test with HeLa cells (setting [1]) and 92.9% in the test on A549 cells.

Regarding `CNCc1ccc(Cl)cc1` [compound 231, N‐(4‐chlorobenzyl)‐N‐methylamine], the viability at 500 µM stood at 113 ± 3.7% in the test on HeLa cells (setting [1]) and 107% in the test with A549 cells.

As for `Cc1cc(N)c(N)cc1Cl` [compound 240, 4-chloro-5-methylbenzene-1,2-diamine], the viability at 500 µM came to 12.1 ± 8.7% in the test with HeLa cells (setting [1]) and 14.7% in the test on A549 cells. Also, the CC50 with HeLa cells amounted to 454 ± 55 µM.

Take `Cc1nc(CC(=O)O)cs1` [compound 243, 2‐(2‐methyl‐1,3‐thiazol‐4‐yl)acetic acid]: the viability at 500 µM came out at 99.5 ± 1.1% in the test with HeLa cells (setting [1]) and 113% in the test with A549 cells.

Take `CCOC(=O)C1CCNCC1` [compound 245, ethyl piperidine‐4‐carboxylate]: the viability at 500 µM in the test with HeLa cells (setting [1]) stood at 97.8 ± 3.2%; with A549 cells it was 99%.

For the molecule `COc1ccc(Cl)cc1N` [compound 246, 5‐chloro‐2‐methoxyaniline], the figures for the viability at 500 µM in the test on HeLa cells (setting [1]) and in the test with A549 cells were 113 ± 16.7% and 113%, respectively.

Take `c1ccc(Cn2cccc2)nc1` [compound 249, 2‐(1H‐pyrrol‐1‐ylmethyl)pyridine]: the viability at 500 µM turned out to be 93.1 ± 19.9% with HeLa cells (setting [1]) and 83.6% in the test on A549 cells.

Take `Nc1ccc(-n2cccc2)cc1` [compound 250, 4‐(1H‐pyrrol‐1‐yl)aniline]: the viability at 500 µM stood at 107 ± 16.6% in the test on HeLa cells (setting [1]) and 89.1% in the test on A549 cells. For the same molecule, in the test on HeLa cells, the CC50 came to 1400 ± 100 µM.

On to `Clc1cn2ccsc2n1` [compound 253, 6‐chloroimidazo[2,1‐b][1,3]thiazole], for which the figures for the viability at 500 µM with HeLa cells (setting [1]) and in the test with A549 cells were 82.1% and 85.1%, respectively.

In the case of `OCc1ccc2ncccc2c1` [compound 255, 6‐quinolinylmethanol], the viability at 500 µM was 89.6 ± 6.8% in the test with HeLa cells (setting [1]) and 84% in the test with A549 cells.

For `Cc1ccc(-c2cnco2)cc1` [compound 259, 5‐(4‐methylphenyl)‐1,3‐oxazole], the viability at 500 µM in the test on HeLa cells (setting [1]) was 88.4 ± 2.5%; in the test with A549 cells, 88.1%.

Take `Nc1ccccc1-n1cccn1` [compound 260, 2‐(1H‐pyrazol‐1‐yl)aniline]: the viability at 500 µM was 98.1 ± 5.6% with HeLa cells (setting [1]) and 97.3% in the test on A549 cells.

For the molecule `NCc1ccc(F)c(Cl)c1` [compound 264, 3‐chloro‐4‐fluorobenzylamine], the viability at 500 µM in the test on HeLa cells (setting [1]) came to 47.5 ± 13.5%; in the test with A549 cells, 88.4%.

`Cc1ccc2oc(=O)ccc2c1` [compound 265, 6‐methyl‐2H‐chromen‐2‐one]: the viability at 500 µM with HeLa cells (setting [1]) turned out to be 95.8 ± 17.2%; with A549 cells, 63.8%.

On to `Oc1ccc(-n2ccnc2)cc1` [compound 266, 4‐(1H‐imidazol‐1‐yl)phenol], for which the viability at 500 µM in the test with HeLa cells (setting [1]) was determined as 83 ± 19.8%; in the test on A549 cells, 108%.

Turning to `Nc1cc(F)c(Cl)cc1N` [compound 269, 4-chloro-5-fluorobenzene-1,2-diamine], the values for the viability at 500 µM with HeLa cells (setting [1]) and in the test on A549 cells were 23.4 ± 14.8% and 50.4%, respectively. Besides, the CC50 with HeLa cells turned out to be 431 ± 53 µM.

`Nc1ccc(C(F)(F)F)cc1` [compound 270, 4‐(trifluoromethyl)aniline]: the results for the viability at 500 µM with HeLa cells (setting [1]) and with A549 cells were 21.8 ± 14.5% and 104%, respectively. Further, the CC50 in the test on HeLa cells worked out at 206 ± 13 µM.

In the case of `COC(=O)c1ccccc1C#N` [compound 274, methyl 2‐cyanobenzoate], the viability at 500 µM came out at 91 ± 19.6% with HeLa cells (setting [1]) and 64% in the test with A549 cells.

`O=C(O)c1cc2ccccc2[nH]1` [compound 275, 1H‐indole‐2‐carboxylic acid]: the viability at 500 µM in the test with HeLa cells (setting [1]) came to 89.7 ± 16.4%; in the test on A549 cells, 67.3%.

On to `Cn1ccc2ccc(CO)cc21` [compound 278, (1‐methyl‐1H‐indol‐6‐yl)methanol], for which the viability at 500 µM in the test with HeLa cells (setting [1]) turned out to be 18.2 ± 10.4%; with A549 cells, 47.8%.

For the molecule `Nc1cc(Cl)cc(Cl)c1` [compound 282, 3,5‐dichloroaniline], the viability at 500 µM in the test on HeLa cells (setting [1]) stood at 86.4 ± 8.5%; in the test on A549 cells, 66.5%.

Consider `Nc1ccc(C(F)(F)F)cn1` [compound 283, 5‐(trifluoromethyl)pyridin‐2‐amine], for which the viability at 500 µM in the test on HeLa cells (setting [1]) came to 92.7 ± 5.3%; in the test with A549 cells, 63.6%.

Consider `OCCc1coc2ccccc12` [compound 284, 2‐benzo[b]furan‐3‐ylethanol], for which the viability at 500 µM in the test on HeLa cells (setting [1]) was determined as 58.7 ± 17.4%; in the test with A549 cells, 63.3%.

On to `Cn1nc(CO)c2ccccc21` [compound 286, (1‐methyl‐1H‐indazol‐3‐yl)methanol], for which the figures for the viability at 500 µM in the test on HeLa cells (setting [1]) and in the test with A549 cells were 90.9 ± 3.1% and 73.2%, respectively.

Regarding `Cc1nc2ccccn2c1CO` [compound 287, (2‐methylimidazo[1,2‐a]pyridin‐3‐yl)methanol], the “HeLa Cells Alamar Blue” value in the test with HeLa cells (setting [2]) is given as 76.2 ± 14 percentage of controls. Further, the “A549 Cells Alamar Blue” value in the test on A549 cells is listed as 79.7 percentage of controls.

On to `Nc1ccccc1N1CCCC1` [compound 289, 2‐pyrrolidin‐1‐ylaniline], for which the figures for the viability at 500 µM in the test on HeLa cells (setting [1]) and in the test on A549 cells were 11.4 ± 9.5% and 23.8%, respectively.

Consider `O=C(O)c1sccc1Cl` [compound 290, 3‐chlorothiophene‐2‐carboxylic acid], for which the values for the viability at 500 µM in the test on HeLa cells (setting [1]) and in the test with A549 cells were 86.9 ± 14.3% and 117%, respectively.

Take `NCCc1cccc2c1OCC2` [compound 293, 2,3‐Dihydrobenzo[b]furan‐7‐ethylamine]: the viability at 500 µM with HeLa cells (setting [1]) was found to be 10.8 ± 0.1%; in the test with A549 cells it was 19.8%.

Take `NCc1ccc2sccc2c1` [compound 294, 1‐benzothiophen‐5‐ylmethylamine]: the viability at 500 µM in the test with HeLa cells (setting [1]) came out at 98.5 ± 13.1%; in the test with A549 cells, 70.6%.

`FC(F)(F)C1=NCCNC=C1` [compound 295, 5‐(trifluoromethyl)‐2,3‐dihydro‐1H‐1,4‐diazepine]: in the test on HeLa cells (setting [2]), the “HeLa Cells Alamar Blue” value is listed as 75.2 ± 18.7 percentage of controls. Moreover, in the test with A549 cells, the “A549 Cells Alamar Blue” value was 72.1 percentage of controls.

As for `Oc1ncnc2cccc(F)c12` [compound 296, 5‐fluoroquinazolin‐4‐ol], the viability at 500 µM with HeLa cells (read-out: HeLa Cells Alamar Blue, Supplementary Table 1, compound 0.5 mM, percentage of controls, mean ± SD (n=3) or SE (n=2)) was 92.7 ± 1.9%; in the test on A549 cells, 63.7%.

In the case of `O=C(O)c1cccc2c1OCC2` [compound 297, 2,3‐dihydrobenzo[b]furan‐7‐carboxylic acid], the “HeLa Cells Alamar Blue” value in the test on HeLa cells (setting [2]) is recorded as 78.8 ± 7.5 percentage of controls. For the same molecule, in the test with A549 cells, the “A549 Cells Alamar Blue” value was 74.9 percentage of controls.

In the case of `OCC1CCc2ccccc2O1` (stereo not shown) [compound 299, 3,4‐dihydro‐2H‐chromen‐2‐ylmethanol], the viability at 500 µM came out at 85.1 ± 14.7% in the test on HeLa cells (setting [1]) and 80.3% in the test on A549 cells.

Turning to `OCC1COc2ccccc2C1` (stereo not shown) [compound 300, 3,4‐dihydro‐2H‐chromen‐3‐ylmethanol], the viability at 500 µM amounted to 90 ± 16.3% in the test on HeLa cells (setting [1]) and 113% in the test on A549 cells.

`Cc1nc2ccc(N)cc2s1` [compound 302, 2‐methyl‐1,3‐benzothiazol‐6‐ylamine]: the viability at 500 µM in the test on HeLa cells (setting [1]) stood at 71.9 ± 12.4%; in the test with A549 cells, 62.3%.

In the case of `COC(=O)c1ccc(N)c(C)c1` [compound 304, methyl 4‐amino‐3‐methylbenzoate], the viability at 500 µM is 100 ± 8.9% with HeLa cells (setting [1]) and 63.4% in the test on A549 cells.
